The test addresses T1, FXR (Rattus norvegicus, UniProt Q62735).
T1 sequence (Q62735 1-469): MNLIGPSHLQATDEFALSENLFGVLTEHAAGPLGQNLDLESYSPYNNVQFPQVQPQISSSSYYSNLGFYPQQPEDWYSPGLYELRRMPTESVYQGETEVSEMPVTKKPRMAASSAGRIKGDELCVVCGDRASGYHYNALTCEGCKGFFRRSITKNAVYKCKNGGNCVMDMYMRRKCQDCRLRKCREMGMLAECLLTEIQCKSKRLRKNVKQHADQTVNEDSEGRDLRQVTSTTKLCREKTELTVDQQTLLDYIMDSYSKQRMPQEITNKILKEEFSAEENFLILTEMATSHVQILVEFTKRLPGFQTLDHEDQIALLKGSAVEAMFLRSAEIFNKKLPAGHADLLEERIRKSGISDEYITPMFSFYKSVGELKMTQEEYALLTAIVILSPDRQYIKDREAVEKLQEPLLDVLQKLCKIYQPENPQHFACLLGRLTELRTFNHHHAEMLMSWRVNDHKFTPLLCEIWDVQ
T1 sequence (P28700 1-467 partner): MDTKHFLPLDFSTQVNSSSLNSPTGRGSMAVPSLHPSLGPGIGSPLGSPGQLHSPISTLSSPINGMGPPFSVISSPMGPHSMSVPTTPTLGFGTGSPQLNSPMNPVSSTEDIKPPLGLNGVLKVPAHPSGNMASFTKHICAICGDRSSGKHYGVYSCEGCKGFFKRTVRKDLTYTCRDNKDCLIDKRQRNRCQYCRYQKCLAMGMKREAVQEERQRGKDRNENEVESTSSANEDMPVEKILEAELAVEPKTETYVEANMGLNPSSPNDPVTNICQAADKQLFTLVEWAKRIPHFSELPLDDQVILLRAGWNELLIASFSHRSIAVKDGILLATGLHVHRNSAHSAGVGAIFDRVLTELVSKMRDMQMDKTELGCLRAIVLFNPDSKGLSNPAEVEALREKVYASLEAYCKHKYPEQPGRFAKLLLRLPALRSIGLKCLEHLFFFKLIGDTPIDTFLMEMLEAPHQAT
Put plainly: cell-based. Particulars: for FXR-dependent transcription, induction: 7.5 μM. The protocol:
These experiments employed a mammalian cell culture system using Chinese hamster ovary cells (CHO) to evaluate the transcriptional function of Drosophila melanogaster EcR and USP using methods described previously (U.S. Patent Application Publication No: 2005/0049230; Henrich et al, 2003). Cells were seeded in 6-well polypropylene culture plates (Falcon) with 10^5 cells per well on the day prior to transfection. Transfection was subsequently performed using either calcium phosphate (Kitareewan et al., 1996, Mol. Biol. Cell, 7:1153-1196) or a GenePorter reagent (Gene Therapy Systems, Inc; San Diego, Calif.) following manufacturer's protocols. Each well received 1.25 μg of (EcRE)5-ΔMTV-CAT (five copies of the hsp27 EcRE inserted into an mouse mammary tumor virus (MTV) promoter upstream of the chloramphenicol acetyltransferase (CAT) gene) or (EcRE)5-ΔMTV-LUC (the same promoter attached to firefly luciferase), 1.25 μg of pCH111 (SV40 early promoter linked to the β-galactosidase gene) to normalize CAT activity, and 0.25 μg of each expression plasmid (EcR, FXR, RXR, USP) that was tested. The cells were incubated with plasmid DNA for seven hours and then washed with 1×PBS. Muristerone A (murA; Alexis Biochemicals) or 20-hydroxyecdysone (20E; Sigma) dissolved in ethanol to a concentration of 10 mM was diluted as necessary to the final assay concentration (FAC) in 2 ml of fresh incubation medium that was then applied to the cells. Similarly, JHIII (Sigma) was dissolved in dimethyl sulfoxide (DMSO) to a concentration of […] and diluted into the incubation medium to its final assay concentration (20, 40, 80, 160 μM). […] A corresponding volume of ethanol and DMSO were added to control cells for all experiments. For all experiments, the cells were allowed to incubate with the medium for 24 hours before collection and cell lysates were prepared by described methods (Kitareewan et al., 1996). Both β-galactosidase and CAT reporter activity were measured based on previously used methods (Kitareewan et al, 1996). Luciferase assays using luciferrin followed the specifications of the manufacturer.
Transcriptional activity, measured as ^14C-chloramphenicol counts (for measuring CAT activity) or relative luciferase activity (RLU) was quantified for each cell lysate. The counts were then normalized by adjusting for differences in β-galactosidase activity, since β-galactosidase expression is controlled by a constitutive promoter and provides an estimate of cell mass. Data were normalized as fold-induction based on differences in reporter gene activity between hormonally treated and control cells.
In these experiments, candidate juvenoids were tested for their ability to activate FXR mediated transcription by transfecting Chinese hamster ovary (CHO) cells using the FXR plasmid, mouse RXRα, and the ΔMTV-(EcRE)5-CAT reporter as described herein. An RXR-dependent CRBPII-CAT reporter plasmid was employed in parallel assays to discern activators specific for this receptor.

[1] abbreviates: dose 20 μM, 1 = no increase over vehicle.

The results in this text go back to US8637237B2, “Methods, compositions, and systems for the identification of species-specific or developmental stage-specific insecticides” (The University of North Carolina at Greensboro, priority 2003, dated 2014).

Turning to 5,11-dimethyltetrahydrochrysene, the “FXR-dependent activity, induction” value (dose not stated) is listed as “activated”. As for `CCCCCc1cc(O)c2c(c1)OC(C)(C)[C@@H]1CC=C(C)C[C@@H]21` (single isomer, unassigned) [Δ^8-isomer], under “15 μM”, the “FXR-dependent CAT activity, induction” value was “not”. Turning to `CC12CCC(CC1)C(C)(C)O2` [1,8-cineole], the “FXR-dependent activity, induction” value (800 μM) is recorded as “two-fold”. The “FXR ACTIVITY (fold-induction)” value (dose 400 μM) was 2 fold-induction. Consider `OCCc1ccccc1O` [2-hydroxyphenethyl alcohol, 2-hydroxyphenethlyl alcohol], for which the “FXR-dependent activity, induction” value (400 μM) is given as 3 fold.

For the molecule `C=C(C)CCc1cc(OC)c(OC)cc1O` [3,4-dimethoxy-6-isopentenylphenol], the “FXR-dependent activity, induction” value (100 μM) was 3 fold. With `OCCc1cccc(O)c1` [3-hydroxyphenethyl alcohol, 3-hydroxyphenethlyl alcohol], the “FXR-dependent activity, induction” value (400 μM) was 3 fold.

On to `OCCc1ccc(O)cc1` [4-hydroxyphenethyl alcohol, 4-hydroxyphenethlyl alcohol], for which the “FXR-dependent activity, induction” value (400 μM) worked out at 3 fold. Regarding `COc1cc2ccc(=O)oc2cc1O` [7-hydroxy-6-methoxycoumarin], the “FXR-dependent activity, induction” value (1 mM) was “ineffectiveness”. In the case of `CC(C)CCC[C@@H](C)[C@H]1CC[C@H]2[C@@H]3C(=O)C=C4C[C@@H](O)CC[C@]4(C)[C@H]3CC[C@]12C` [7-ketocholesterol], the “FXR-dependent transcription, induction” value was “not”.

In the case of `COc1ccc2ccc(=O)oc2c1` [7-methoxycoumarin], the “FXR-dependent activity, induction” value (1 mM) came to 10 fold. Turning to `CC(C)CCC[C@@H](C)[C@H]1CC[C@H]2[C@@H]3[C@H](O)C=C4C[C@@H](O)CC[C@]4(C)[C@H]3CC[C@]12C` [7α-hydroxycholesterol], the “FXR-dependent transcription, induction” value was “not”. With `Nc1ncnc2c1nc(Br)n2[C@@H]1O[C@@H]2COP(=O)(O)O[C@H]2[C@H]1O` [8-Br-cAMP], the “FXR-dependent activity, induction” value (1 mM) was 4 fold. Turning to `COc1c2occc2cc2ccc(=O)oc12` [8-methoxypsoralen], the “FXR-dependent CAT activity, induction” value (50 μM) was “inactive”. On to `CC(C)=CCc1c(O)cc(O)c2c1O[C@H](c1ccc(O)cc1)CC2=O` [8-prenylnaringenin], for which the “FXR-dependent CAT activity, induction” value (20 μM) worked out at 38 fold. Besides, under setting [1], the “FXR ACTIVITY (fold-induction)” value was 38 fold-induction. As to `CC(C)CCC[C@](C)(O)[C@H]1CC[C@H]2[C@@H]3CC=C4C[C@@H](O)CC[C@]4(C)[C@H]3CC[C@@]21C` [20α-hydroxycholesterol], the “FXR-dependent transcription, induction” value stood at 10 fold. Still for that read-out and setting: under `CC(C)CC[C@H](O)[C@@H](C)[C@H]1CC[C@H]2[C@@H]3CC=C4C[C@@H](O)CC[C@]4(C)[C@H]3CC[C@]12C` [22S-hydroxycholesterol] stands “not”.

As for `COc1cc(O)c(CC=C(C)C)c2c1C(=O)CC(c1ccc(O)cc1)O2` (stereo not shown) [Isoxanthohumol], the “FXR-dependent CAT activity, induction” value (20 μM) was determined as 9 fold. For the same molecule, the “FXR ACTIVITY (fold-induction)” value under setting [1] is 9 fold-induction. On to `CC(C)=CCC1=C(O)C(C(=O)CC(C)C)=C(O)C(CC=C(C)C)(CC=C(C)C)C1=O` [Lupulone], for which the “FXR-dependent CAT activity, induction” value (20 μM) is on record as “inert”. The “FXR ACTIVITY (fold-induction)” value under setting [1] worked out at 1 fold-induction. As for `CC1=C[C@H]2[C@@]3(O)[C@H](C)[C@@H](O)[C@]4(O)[C@H]([C@@H]3C=C(CO)C[C@]2(O)C1=O)C4(C)C` [Phorbol], the “FXR-dependent activity, induction” value (dose not stated) is “inactive”. On to `CCCCCc1cc(O)c2c(c1)OC(C)(C)[C@@H]1CCC(C)=C[C@@H]21` [THC, 1-trans-Δ^9-tetrahydrocannabinol], for which the “FXR-dependent CAT activity, induction” value (15 μM) is listed as 5 fold. Consider `COC1=C(OC)C(=O)C(CC=C(C)C)=C(C)C1=O` [U1, Ubiquinone-1], for which, under “10 μM”, the “inhibition of farnesol-induced FXR-dependent activity” value is reported as “completely inhibited”. On to `COC1=C(OC)C(=O)C(C/C=C(\C)CC/C=C(\C)CCC=C(C)C)=C(C)C1=O` [U3], for which the “FXR-dependent activity, induction” value (dose not stated) came to 5 fold.

For `COC1=C(OC)C(=O)C(C/C=C(\C)CC/C=C(\C)CC/C=C(\C)CCC=C(C)C)=C(C)C1=O` [U4], the “FXR-dependent activity, induction” value (dose not stated) worked out at 3 fold. For the molecule `COC1=C(OC)C(=O)C(C/C=C(\C)CC/C=C(\C)CC/C=C(\C)CC/C=C(\C)CC/C=C(\C)CCC=C(C)C)=C(C)C1=O` [U6], the “FXR-dependent activity, induction” value (dose not stated) was “inactive”. Still for that read-out and setting: under `COC1=C(OC)C(=O)C(C/C=C(\C)CC/C=C(\C)CC/C=C(\C)CC/C=C(\C)CC/C=C(\C)CC/C=C(\C)CC/C=C(\C)CCC=C(C)C)=C(C)C1=O` [U8] stands “inactive”. Take `COC1=C(OC)C(=O)C(C/C=C(\C)CC/C=C(\C)CC/C=C(\C)CC/C=C(\C)CC/C=C(\C)CC/C=C(\C)CC/C=C(\C)CC/C=C(\C)CCC=C(C)C)=C(C)C1=O` [U9]: where the note is “dose not stated”, the “FXR-dependent activity, induction” value was “inactive”. As to `COC1=C(OC)C(=O)C(C/C=C(\C)CC/C=C(\C)CC/C=C(\C)CC/C=C(\C)CC/C=C(\C)CC/C=C(\C)CC/C=C(\C)CC/C=C(\C)CC/C=C(\C)CCC=C(C)C)=C(C)C1=O` [U10], the “FXR-dependent activity, induction” value (dose not stated) is “inactive”.

Take `COc1cc(O)c(CC=C(C)C)c(O)c1C(=O)/C=C/c1ccc(O)cc1` [Xanthohumol]: for the setting “dose not given, 1 = no increase over vehicle”, the “FXR ACTIVITY (fold-induction)” value is on record as 1 fold-induction. For the same molecule, the “FXR-dependent activity, induction” value (dose not stated) is “not activated”.

Turning to `CCOC(=O)C=C(C)CCCC(C)(Cl)CCCC(C)(C)Cl` (stereo not shown) [ZR232, ethyl ester of 7,11-dichloro-2-ene farnesoic acid], the “FXR-dependent CAT activity, induction” value (50 μM) stood at 5 fold.

On to `Nc1ncnc2nc[nH]c12` [adenine], for which the “FXR-dependent activity, induction” value (dose not stated) was “ineffective”. Turning to `C=CCc1cc(OC)c2c(c1OC)OCO2` [apiole], the “FXR-dependent CAT activity, induction” value (250 μM) was found to be 4 fold. Regarding `CC(C)=CCC/C(C)=C/COc1c2ccoc2cc2oc(=O)ccc12` [bergamotin], the “FXR-dependent activity, induction” value (25 μM) is listed as 8 fold. Where the note is “dose 25 μM”, the “FXR ACTIVITY (fold-induction)” value was 10 fold-induction. Regarding `C=CCC1=C(C)C(OC(=O)[C@@H]2[C@@H](C=C(C)C)C2(C)C)CC1=O` (stereo partly shown) [bioallethrin], the “FXR-dependent activity, induction” value (25 μM) stood at 14 fold. Turning to `C[C@@]12CCc3occc3[C@H]1CC[C@@]13C[C@@H](CC[C@H]12)[C@@](O)(CO)C3` [cafestol], the “FXR ACTIVITY (fold-induction)” value under setting [1] is listed as 12 fold-induction. For `O=C(O)/C=C/c1ccc(O)c(O)c1` [caffeic acid], the “FXR-dependent CAT activity, induction” value (250 μM) was “inactive”. Under “dose 100 μM, 1 = no increase over vehicle”, the “FXR ACTIVITY (fold-induction)” value amounted to 1 fold-induction. For the molecule `CCCCCc1cc(O)c2c(c1)OC(C)(C)c1ccc(C)cc1-2` [cannabinol], under “15 μM”, the “FXR-dependent CAT activity, induction” value was “not”. Regarding `CNC(=O)Oc1cccc2ccccc12` [carbaryl], the “FXR-dependent activity, induction” value (dose not stated) is “inactive”. Consider `ClC1=C(Cl)C2(Cl)C3C(Cl)C(Cl)CC3C1(Cl)C2(Cl)Cl` (stereo not shown) [chlordane], for which the “FXR-dependent CAT activity, induction” value (5 μM) is 7 fold. For the same molecule, the “FXR ACTIVITY (fold-induction)” value (dose 5 μM) came to 7 fold-induction.
